Data from patent US8785457B2 (Cellzome Limited, priority 2009, dated 2014).
Where two headings read alike, the source gives them in different places.

Tests used:
mTOR = molecular target: T1, mTOR (Homo sapiens, UniProt P42345); test: mTOR kinobeads assay (competitive binding in Jurkat cell lysate, immunodetection); settings: kinobeads assay
T1 construct: endogenous in cells; host or cells: Jurkat, clone E6-1 (ATCC TIB-152) cell lysate
In short: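 IC50 derived from dose-response curves of mTOR captured on immobilized phenylmorpholin-chromen beads, detected by antibody dot blot with infrared fluorescence.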

PI3Kalpha (PI3Ka) = molecular target: T2, PI3Kalpha (PI3Ka) (Homo sapiens, UniProt P42336); test: kinobeads assay, PI3Kalpha; format: binding; settings: kinobeads assay, Table 6; for IC50: read-out: Inhibition values (IC50) PI3Ka
T2 construct: endogenous in cells; host or cells: cell lysate
T2 sequence (P42336 whole entry): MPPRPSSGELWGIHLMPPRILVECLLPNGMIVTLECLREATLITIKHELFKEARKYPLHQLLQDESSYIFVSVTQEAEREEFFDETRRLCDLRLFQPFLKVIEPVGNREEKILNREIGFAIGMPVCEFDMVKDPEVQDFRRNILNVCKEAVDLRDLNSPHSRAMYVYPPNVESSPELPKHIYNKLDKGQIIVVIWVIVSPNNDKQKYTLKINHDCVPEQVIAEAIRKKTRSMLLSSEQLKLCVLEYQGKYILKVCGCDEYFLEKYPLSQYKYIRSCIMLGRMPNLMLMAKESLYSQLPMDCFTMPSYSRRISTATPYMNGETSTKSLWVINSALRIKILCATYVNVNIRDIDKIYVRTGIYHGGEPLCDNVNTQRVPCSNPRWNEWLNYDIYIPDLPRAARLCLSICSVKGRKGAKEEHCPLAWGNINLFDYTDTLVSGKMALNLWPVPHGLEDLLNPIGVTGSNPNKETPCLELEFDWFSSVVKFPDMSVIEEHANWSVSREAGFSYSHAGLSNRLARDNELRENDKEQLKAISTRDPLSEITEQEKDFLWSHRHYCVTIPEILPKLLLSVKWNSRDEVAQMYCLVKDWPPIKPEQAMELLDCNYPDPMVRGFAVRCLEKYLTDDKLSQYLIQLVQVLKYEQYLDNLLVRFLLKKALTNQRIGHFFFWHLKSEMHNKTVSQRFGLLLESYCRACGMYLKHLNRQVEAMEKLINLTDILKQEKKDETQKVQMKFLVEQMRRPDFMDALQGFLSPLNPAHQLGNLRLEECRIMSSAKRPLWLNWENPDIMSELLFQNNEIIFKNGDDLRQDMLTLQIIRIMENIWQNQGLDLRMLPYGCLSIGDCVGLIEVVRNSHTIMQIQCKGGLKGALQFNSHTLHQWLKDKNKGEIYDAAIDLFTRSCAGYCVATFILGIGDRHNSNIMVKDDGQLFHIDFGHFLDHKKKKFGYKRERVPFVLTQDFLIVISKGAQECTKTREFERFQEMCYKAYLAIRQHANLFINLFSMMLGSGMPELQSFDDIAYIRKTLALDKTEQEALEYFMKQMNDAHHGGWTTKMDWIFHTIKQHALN
T2 sequence (P27986 whole entry partner): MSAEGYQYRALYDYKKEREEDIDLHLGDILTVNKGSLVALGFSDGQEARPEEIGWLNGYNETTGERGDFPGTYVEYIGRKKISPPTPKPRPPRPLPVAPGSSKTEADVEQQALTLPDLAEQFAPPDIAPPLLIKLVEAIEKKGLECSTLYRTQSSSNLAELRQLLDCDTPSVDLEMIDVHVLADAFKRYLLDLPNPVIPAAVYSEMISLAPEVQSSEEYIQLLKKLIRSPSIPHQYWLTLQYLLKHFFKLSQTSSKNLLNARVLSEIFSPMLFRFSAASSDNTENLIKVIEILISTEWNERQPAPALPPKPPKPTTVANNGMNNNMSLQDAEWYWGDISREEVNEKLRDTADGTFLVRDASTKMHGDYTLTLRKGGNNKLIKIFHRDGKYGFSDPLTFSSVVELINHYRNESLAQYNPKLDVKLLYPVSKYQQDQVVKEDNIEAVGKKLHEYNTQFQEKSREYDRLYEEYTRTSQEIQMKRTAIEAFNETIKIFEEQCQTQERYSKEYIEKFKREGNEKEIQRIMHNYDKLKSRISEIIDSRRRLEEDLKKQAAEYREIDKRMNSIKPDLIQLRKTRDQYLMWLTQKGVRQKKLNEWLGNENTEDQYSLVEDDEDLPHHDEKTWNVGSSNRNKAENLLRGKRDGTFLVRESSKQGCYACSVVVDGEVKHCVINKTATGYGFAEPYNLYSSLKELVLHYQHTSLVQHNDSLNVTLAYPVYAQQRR
In short: (§1)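 Test compounds at various concentrations were added to cell lysate together with beads carrying an immobilized phenylmorpholin-chromen ligand, competing for kinase binding. Captured proteins were separated, eluted and quantified by multiplexed immunodetection; IC50 values came from dose-response curves for each kinase.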

PI3 Kbeta (PI3 Kb) = molecular target: T3, PI3 Kbeta (PI3 Kb) (Homo sapiens, UniProt P42338); test: kinobeads assay, PI3Kbeta; format: binding; settings: kinobeads assay, Table 6; read-out: Inhibition values (IC50) PI3Kb
T3 construct: endogenous in cells; host or cells: cell lysate
T3 sequence (P42338 whole entry): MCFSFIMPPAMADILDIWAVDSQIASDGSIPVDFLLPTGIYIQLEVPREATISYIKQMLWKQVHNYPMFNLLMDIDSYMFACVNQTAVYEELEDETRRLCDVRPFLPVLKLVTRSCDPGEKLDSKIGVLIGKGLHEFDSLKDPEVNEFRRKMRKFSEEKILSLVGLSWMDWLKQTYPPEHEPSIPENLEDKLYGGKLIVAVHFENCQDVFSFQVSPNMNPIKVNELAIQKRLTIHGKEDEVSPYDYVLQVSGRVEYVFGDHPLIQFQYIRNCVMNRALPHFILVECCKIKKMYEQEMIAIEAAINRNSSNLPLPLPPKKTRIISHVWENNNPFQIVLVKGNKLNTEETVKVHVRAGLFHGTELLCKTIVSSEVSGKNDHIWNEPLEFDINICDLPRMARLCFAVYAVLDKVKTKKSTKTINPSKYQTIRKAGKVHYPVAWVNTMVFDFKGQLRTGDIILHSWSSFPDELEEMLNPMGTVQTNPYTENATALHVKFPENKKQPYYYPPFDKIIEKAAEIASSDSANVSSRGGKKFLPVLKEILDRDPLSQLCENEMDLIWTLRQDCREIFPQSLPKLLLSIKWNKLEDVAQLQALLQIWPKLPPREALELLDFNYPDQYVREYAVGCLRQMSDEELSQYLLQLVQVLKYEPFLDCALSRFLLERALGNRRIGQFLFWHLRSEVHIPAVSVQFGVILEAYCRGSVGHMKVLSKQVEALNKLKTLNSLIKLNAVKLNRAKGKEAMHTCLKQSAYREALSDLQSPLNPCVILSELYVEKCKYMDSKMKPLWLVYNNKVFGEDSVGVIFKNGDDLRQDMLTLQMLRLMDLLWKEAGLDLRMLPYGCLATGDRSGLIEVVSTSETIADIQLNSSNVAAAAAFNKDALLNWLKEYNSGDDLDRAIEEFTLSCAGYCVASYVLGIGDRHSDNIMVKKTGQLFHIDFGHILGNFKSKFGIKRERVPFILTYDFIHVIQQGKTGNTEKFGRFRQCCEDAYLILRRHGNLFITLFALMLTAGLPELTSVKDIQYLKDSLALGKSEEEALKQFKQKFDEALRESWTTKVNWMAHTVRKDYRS
T3 sequence (P27986 whole entry partner): as the sequence (P27986 whole entry partner) above
In short: as §1

[1] = Table 6, read-out: Inhibition values (IC50) mTOR
[2] = Table 4, read-out: Inhibition values (IC50) mTor

Compound	IC50 (mTOR; [1]) [µM]	Inhibition values (IC50) PI3Ka (PI3Kalpha (PI3Ka))	IC50 (PI3 Kbeta (PI3 Kb)) [µM]	IC50 (PI3Kalpha (PI3Ka)) [µM]	IC50 (mTOR; [2]) [µM]
CCNC(=O)Nc1ccc(-c2nc3c(c(N4CCOC[C@@H]4C)n2)CN(C2CCN(C(=O)OC)CC2)C3)cc1F [Example 122, (S)-methyl 4-(2-(4-(3-ethylureido)-3-fluorophenyl)-4-(3-methylmorpholino)-5H-pyrrolo[3,4-d]pyrimidin-6(7H)-yl)piperidine-1-carboxylate]	0.1 to 1	D (D >10 μM)	> 10		
C[C@H]1COCCN1c1nc(-c2ccc(NC(N)=O)cc2)nc2c1CN(C)C2 [Example 71, (S)-1-(4-(6-methyl-4-(3-methylmorpholino)-6,7-dihydro-5H-pyrrolo[3,4-d]pyrimidin-2-yl)phenyl)urea]	< 0.1		1 to 10	1 to 10	
CCNC(=O)Nc1ccc(-c2nc3c(c(N4CCOC[C@@H]4C)n2)CCN(C)C3)c(F)c1 [Example 110, (S)-1-ethyl-3-(3-fluoro-4-(7-methyl-4-(3-methylmorpholino)-5,6,7,8-tetrahydropyrido[3,4-d]pyrimidin-2-yl)phenyl)urea]	0.1 to 1	D (D >10 μM)	> 10		
CC(C)C(=O)N1CCc2c(nc(-c3ccc(NC(=O)NC4CC4)cc3)nc2N2CCOC[C@@H]2C)C1 [Example 61, (S)-1-cyclopropyl-3-(4-(7-isobutyryl-4-(3-methylmorpholino)-5,6,7,8-tetrahydropyrido[3,4-d]pyrimidin-2-yl)phenyl)urea]	< 0.1	D (D >10 μM)	> 10		< 0.1
CCOC(=O)N1CCc2c(nc(-c3ccc(NC(=O)NC4CC4)cc3)nc2N2CCOC[C@@H]2C)C1 [Example 78, (S)-ethyl 2-(4-(3-cyclopropylureido)phenyl)-4-(3-methylmorpholino)-5,6-dihydropyrido[3,4-d]pyrimidine-7(8H)-carboxylate]	< 0.1	D (D >10 μM)	> 10		
CCNC(=O)Nc1ccc(-c2nc3c(c(N4CCOCC4)n2)CN(C(=O)C(C)(C)C)C3)cc1 [Example 100, 1-ethyl-3-(4-(4-morpholino-6-pivaloyl-6,7-dihydro-5H-pyrrolo[3,4-d]pyrimidin-2-yl)phenyl)urea]	0.1 to 1		> 10	1 to 10	
CCNC(=O)Nc1ccc(-c2nc3c(c(N4CCOC[C@@H]4C)n2)CCN(C(=O)Cc2cccnc2)C3)cc1 [Example 91, (S)-1-ethyl-3-(4-(4-(3-methylmorpholino)-7-(2-(pyridin-3-yl)acetyl)-5,6,7,8-tetrahydropyrido[3,4-d]pyrimidin-2-yl)phenyl)urea]	< 0.1	D (D >10 μM)	> 10		
CCNC(=O)Nc1ccc(-c2nc3c(c(N4CCOC[C@@H]4C)n2)CCN(C(=O)NCC)C3)cc1 [Example 87, (S)—N-ethyl-2-(4-(3-ethylureido)phenyl)-4-(3-methylmorpholino)-5,6-dihydropyrido[3,4-d]pyrimidine-7(8H)-carboxamide]	< 0.1	D (D >10 μM)	> 10		
C[C@H]1COCCN1c1nc(-c2ccc(NC(=O)NC3CC3)cc2)nc2c1CCN(C(=O)C(C)(C)C)C2 [Example 64, (S)-1-cyclopropyl-3-(4-(4-(3-methylmorpholino)-7-pivaloyl-5,6,7,8-tetrahydropyrido[3,4-d]pyrimidin-2-yl)phenyl)urea]	< 0.1	D (D >10 μM)	> 10		
CCNC(=O)Nc1ccc(-c2nc3c(c(N4CCOCC4)n2)CCN(C)C3)cc1 [Example 93, 1-ethyl-3-(4-(7-methyl-4-morpholino-5,6,7,8-tetrahydropyrido[3,4-d]pyrimidin-2-yl)phenyl)urea]	0.1 to 1	D (D >10 μM)	> 10		
CCNC(=O)Nc1ncc(-c2nc3c(c(N4CCOC[C@@H]4C)n2)CCN(C)C3)s1 [Example 106, (S)-1-ethyl-3-(5-(7-methyl-4-(3-methylmorpholino)-5,6,7,8-tetrahydropyrido[3,4-d]pyrimidin-2-yl)thiazol-2-yl)urea]	0.1 to 1	D (D >10 μM)	> 10		
CCNC(=O)Nc1ccc(-c2nc3c(c(N4CCOCC4)n2)CCN(C(=O)NCC)C3)cc1 [Example 94, N-ethyl-2-(4-(3-ethylureido)phenyl)-4-morpholino-5,6-dihydropyrido[3,4-d]pyrimidine-7(8H)-carboxamide]	0.1 to 1		> 10	1 to 10	
CCOC(=O)N1Cc2nc(-c3ccc(NC(=O)NC4CC4)c(F)c3)nc(N3CCOC[C@@H]3C)c2C1 [Example 105, (S)-ethyl 2-(4-(3-cyclopropylureido)-3-fluorophenyl)-4-(3-methylmorpholino)-5H-pyrrolo[3,4-d]pyrimidine-6(7H)-carboxylate]	0.1 to 1	D (D >10 μM)	> 10		
CCNC(=O)Nc1ccc(-c2nc3c(c(N4CCOC[C@@H]4C)n2)CCN(C(=O)CO)C3)cc1 [Example 102, (S)-1-ethyl-3-(4-(7-(2-hydroxyacetyl)-4-(3-methylmorpholino)-5,6,7,8-tetrahydropyrido[3,4-d]pyrimidin-2-yl)phenyl)urea]	< 0.1	D (D >10 μM)	> 10		
CCNC(=O)Nc1ccc(-c2nc3c(c(N4CCOC[C@@H]4C)n2)CCN(C(=O)C(C)(C)C)C3)cc1 [Example 58, (S)-1-ethyl-3-(4-(4-(3-methylmorpholino)-7-pivaloyl-5,6,7,8-tetrahydropyrido[3,4-d]pyrimidin-2-yl)phenyl)urea]	< 0.1	D (D >10 μM)	> 10		< 0.1
C[C@H]1COCCN1c1nc(-c2ccc(NC(=O)NC3CC3)cc2)nc2c1CN(CC(F)(F)F)C2 [Example 101, (S)-1-cyclopropyl-3-(4-(4-(3-methylmorpholino)-6-(2,2,2-trifluoroethyl)-6,7-dihydro-5H-pyrrolo[3,4-d]pyrimidin-2-yl)phenyl)urea]	0.1 to 1				
CCNC(=O)Nc1ccc(-c2nc3c(c(N4CCOC[C@@H]4C)n2)CN(C(=O)OCC)C3)cc1 [Example 90, (S)-ethyl 2-(4-(3-ethylureido)phenyl)-4-(3-methylmorpholino)-5H-pyrrolo[3,4-d]pyrimidine-6(7H)-carboxylate]	< 0.1	D (D >10 μM)	> 10		
CCNC(=O)Nc1ccc(-c2nc3c(c(N4CCOC[C@@H]4C)n2)CN(C(=O)OCC)C3)cc1F [Example 103, (S)-ethyl-2-(4-(3-ethylureido)-3-fluorophenyl)-4-(3-methylmorpholino)-5H-pyrrolo[3,4-d]pyrimidine-6(7H)-carboxylate]	0.1 to 1	D (D >10 μM)	> 10		
CCNC(=O)Nc1ccc(-c2nc3c(c(N4CCOC[C@@H]4C)n2)CN(CC(C)C)C3)cc1 [Example 66, (S)-1-ethyl-3-(4-(6-isobutyl-4-(3-methylmorpholino)-6,7-dihydro-5H-pyrrolo[3,4-d]pyrimidin-2-yl)phenyl)urea]	< 0.1	D (D >10 μM)	> 10		
CCNC(=O)Nc1ccc(-c2nc3c(c(N4CCOC[C@@H]4C)n2)CCN(C(=O)OCC)C3)cc1 [Example 77, (S)-ethyl 2-(4-(3-ethylureido)phenyl)-4-(3-methylmorpholino)-5,6-dihydropyrido[3,4-d]pyrimidine-7(8H)-carboxylate]	< 0.1	D (D >10 μM)	> 10		
CCNC(=O)Nc1ccc(-c2nc3c(c(N4CCOCC4)n2)CCN(C(=O)OCC)C3)cc1 [Example 96, ethyl 2-(4-(3-ethylureido)phenyl)-4-morpholino-5,6-dihydropyrido[3,4-d]pyrimidine-7(8H)-carboxylate]	0.1 to 1	D (D >10 μM)	> 10		
CCNC(=O)Nc1cc(F)c(-c2nc3c(c(N4CCOC[C@@H]4C)n2)CCN(C)C3)cc1F [Example 108, (S)-1-(2,5-difluoro-4-(7-methyl-4-(3-methylmorpholino)-5,6,7,8-tetrahydropyrido[3,4-d]pyrimidin-2-yl)phenyl)-3-ethylurea]	0.1 to 1	D (D >10 μM)	> 10		
C[C@H]1COCCN1c1nc(-c2ccc(NC(=O)NC3CC3)cc2)nc2c1CN(C(=O)C1CCOCC1)C2 [Example 129, (S)-1-cyclopropyl-3-(4-(4-(3-methylmorpholino)-6-(tetrahydro-2H-pyran-4-carbonyl)-6,7-dihydro-5H-pyrrolo[3,4-d]pyrimidin-2-yl)phenyl)urea]	< 0.1	D (D >10 μM)			
CCNC(=O)Nc1ccc(-c2nc3c(c(N4CCOC[C@@H]4C)n2)CCN(C(C)=O)C3)cc1 [Example 59, (S)-1-(4-(7-acetyl-4-(3-methylmorpholino)-5,6,7,8-tetrahydropyrido[3,4-d]pyrimidin-2-yl)phenyl)-3-ethylurea]	< 0.1				< 0.1
CCNC(=O)Nc1ccc(-c2nc3c(c(N4CCOC[C@@H]4C)n2)CN(C(=O)OC(C)(C)C)C3)cc1 [Example 1, (S)-tert-butyl 2-(4-(3-ethylureido)phenyl)-4-(3-methylmorpholino)-5H-pyrrolo[3,4-d]pyrimidine-6(7H)-carboxylate]	0.1 to 1				0.1 to 1
